From ChEMBL document CHEMBL3044568, “Synthesis, analgesic, anti-inflammatory, and in vitro antimicrobial activities of some novel quinazolin-4(3H)-one derivatives” (Med Chem Res, 2013) come the findings set out here.

As a reminder, the MIC is the lowest concentration that inhibits growth of the organism.

Converted amounts (≈) assume the structure as drawn.

One series deals with Pseudomonas aeruginosa. The series is described as follows: Antibacterial activity against Pseudomonas aeruginosa […] assessed as growth inhibition after 24 hr by agar streak dilution method. Format: functional.
Series [1] concerns Mus musculus. The series is described as follows: Analgesic activity in Mus musculus […] albino (mouse) at 10 mg/kg, po measured at 1 hr by tail flick test (reference value: 5 +/- 0.49%).
The test system of series [2] is Mus musculus. The series is described as follows: Analgesic activity in Mus musculus […] albino (mouse) at 10 mg/kg, po measured at 2 hr by tail flick test (reference value: 6 +/- 0.84%). A general note: Hot-plate and tail-flick tests time the reaction to a heat stimulus.
The test system of series [3] is Mus musculus. The series is described as follows: Analgesic activity in Mus musculus […] albino (mouse) at 20 mg/kg, po measured at 3 hr by tail flick test (reference value: 3 +/- 0.41%).
Another series deals with Escherichia coli. The series is described as follows: Antibacterial activity against Escherichia coli ATCC 25922 assessed as growth inhibition after 24 hr by agar streak dilution method. As to conditions: ATCC 25922, 24 h. The series is classed as functional.
The subject of series [4] is Rattus norvegicus. The series is described as follows: Anti-inflammatory activity in Rattus norvegicus Wistar (rat) assessed as protection against carrageenan-induced paw edema at 20 mg/kg, po measured at 3 hr by plethysmographic analysis (reference value: 4 +/- 0.75%). Format: functional. In general terms: Carrageenan injected into the paw causes an acute inflammation.

Series [5] deals with Rattus norvegicus. The series is described as follows: Anti-inflammatory activity in Rattus norvegicus Wistar (rat) assessed as protection against carrageenan-induced paw edema at 20 mg/kg, po measured at 2 hr by plethysmographic analysis (reference value: 5 +/- 0.41%). The series is classed as functional.
Series [6] has as its system Rattus norvegicus. The series is described as follows: Anti-inflammatory activity in Rattus norvegicus Wistar (rat) assessed as protection against carrageenan-induced paw edema at 10 mg/kg, po measured at 30 min by plethysmographic analysis (reference value: 4 +/- 0.28%). The series is classed as functional.
The test system of series [7] is Rattus norvegicus. The series is described as follows: Anti-inflammatory activity in Rattus norvegicus Wistar (rat) assessed as protection against carrageenan-induced paw edema at 20 mg/kg, po measured at 1 hr by plethysmographic analysis (reference value: 6 +/- 0.63%). The series is classed as functional.
The subject of series [8] is Rattus norvegicus. The series is described as follows: Anti-inflammatory activity in Rattus norvegicus Wistar (rat) assessed as protection against carrageenan-induced paw edema at 10 mg/kg, po measured at 1 hr by plethysmographic analysis (reference value: 6 +/- 0.63%). Format: functional.
The test system of series [9] is Mus musculus. The series is described as follows: Analgesic activity in Mus musculus […] albino (mouse) at 10 mg/kg, po measured at 30 min by tail flick test (reference value: 4 +/- 0.72%).
Series [10] concerns Mus musculus. The series is described as follows: Analgesic activity in Mus musculus […] albino (mouse) at 20 mg/kg, po measured at 2 hr by tail flick test (reference value: 6 +/- 0.84%).
Series [11] has as its system Mus musculus. The series is described as follows: Analgesic activity in Mus musculus […] albino (mouse) at 20 mg/kg, po measured at 30 min by tail flick test (reference value: 4 +/- 0.72%).
The test system of series [12] is Mus musculus. The series is described as follows: Analgesic activity in Mus musculus […] albino (mouse) at 20 mg/kg, po measured at 1 hr by tail flick test (reference value: 5 +/- 0.49%).
Series [13] relates to Rattus norvegicus. The series is described as follows: Ulcerogenecity in Rattus norvegicus Wistar albino (rat) stomach assessed as ulcer index administered 20 mg/kg, ip qd for 3 days measured on day 4 relative to aspirin. Format: ADME, organism-based. Further details: dose 20 mg/kg, route intraperitoneal. To be noted: in vivo, 72 h.
Series [14] concerns Rattus norvegicus. The series is described as follows: Anti-inflammatory activity in Rattus norvegicus Wistar (rat) assessed as protection against carrageenan-induced paw edema at 10 mg/kg, po measured at 2 hr by plethysmographic analysis (reference value: 5 +/- 0.41%). Format: functional.
Series [15] relates to Rattus norvegicus. The series is described as follows: Ulcerogenecity in Rattus norvegicus Wistar albino (rat) stomach assessed as ulcer index administered 20 mg/kg, ip qd for 3 days measured on day 4 relative to diclofenac. Format: ADME, organism-based. Further details: dose 20 mg/kg, route intraperitoneal. As to conditions: in vivo, 72 h.
Series [16] deals with Rattus norvegicus. The series is described as follows: Ulcerogenecity in Rattus norvegicus Wistar albino (rat) stomach assessed as ulcer index administered 20 mg/kg, ip qd for 3 days measured on day 4 (reference value: 0.13 +/- 0.05 no unit). The series is classed as ADME, organism-based. On the set-up: dose 20 mg/kg, route intraperitoneal. To be noted: in vivo, 72 h.
The test system of a further series is Micrococcus luteus. The series is described as follows: Antibacterial activity against Micrococcus luteus ATCC 4698 assessed as growth inhibition after 24 hr by agar streak dilution method. The series is classed as functional. As to conditions: ATCC 4698, 24 h.
A further series has as its system Bacillus cereus. The series is described as follows: Antibacterial activity against Bacillus cereus ATCC 11778 assessed as growth inhibition after 24 hr by agar streak dilution method. Format: functional. To be noted: ATCC 11778, 24 h.
The subject of another series is Klebsiella pneumoniae. The series is described as follows: Antibacterial activity against Klebsiella pneumoniae ATCC 11298 assessed as growth inhibition after 24 hr by agar streak dilution method. Format: functional. As to conditions: ATCC 11298, 24 h.
Series [17] relates to Rattus norvegicus. The series is described as follows: Anti-inflammatory activity in Rattus norvegicus Wistar (rat) assessed as protection against carrageenan-induced paw edema at 20 mg/kg, po measured at 30 min by plethysmographic analysis (reference value: 4 +/- 0.28%). Format: functional.
Series [18] concerns Mus musculus. The series is described as follows: Analgesic activity in Mus musculus […] albino (mouse) at 10 mg/kg, po measured at 3 hr by tail flick test (reference value: 3 +/- 0.41%).
Another series concerns Staphylococcus aureus. The series is described as follows: Antibacterial activity against Staphylococcus aureus ATCC 9144 assessed as growth inhibition after 24 hr by agar streak dilution method. Format: functional. To be noted: ATCC 9144, 24 h.
Series [19] deals with Rattus norvegicus. The series is described as follows: Anti-inflammatory activity in Rattus norvegicus Wistar (rat) assessed as protection against carrageenan-induced paw edema at 10 mg/kg, po measured at 3 hr by plethysmographic analysis (reference value: 4 +/- 0.75%). Format: functional.
In the next series the test system is Aspergillus niger. The series is described as follows: Antifungal activity against Aspergillus niger ATCC 9029 assessed as growth inhibition after 48 hr by agar streak dilution method. Format: functional. To be noted: ATCC 9029, 48 h.
A further series has as its system Aspergillus fumigatus. The series is described as follows: Antifungal activity against Aspergillus fumigatus ATCC 46645 assessed as growth inhibition after 48 hr by agar streak dilution method. The series is classed as functional. To be noted: ATCC 46645, 48 h.
Series [20] relates to Staphylococcus epidermidis. The series is described as follows: Antibacterial activity against Staphylococcus epidermidis ATCC 155 assessed as growth inhibition after 24 hr by agar streak dilution method. The series is classed as functional. To be noted: ATCC 155, 24 h.
Series [21] deals with Rattus norvegicus. The series is described as follows: Ulcerogenecity in Rattus norvegicus Wistar albino (rat) stomach assessed as ulcer index administered 200 mg/kg, ip qd for 3 days measured on day 4 (reference value: 0.13 +/- 0.05 no unit). The series is classed as ADME, organism-based. Further details: dose 200 mg/kg, route intraperitoneal. To be noted: in vivo, 72 h.

Take `Cc1nc2ccccc2c(=O)n1-c1ccc(NC(=O)CN/N=C/c2ccc(C(F)(F)F)cc2)cc1`: the MIC in the series on Pseudomonas aeruginosa is 7.81 µg/mL (≈ 16.3 µM); in the series on Escherichia coli, 31.2 µg/mL (≈ 65.2 µM); in the series with Micrococcus luteus, 7.81 µg/mL (≈ 16.3 µM); in the series on Bacillus cereus it was 3.9 µg/mL (≈ 8.13 µM); with Klebsiella pneumoniae, 7.81 µg/mL (≈ 16.3 µM); in the series with Staphylococcus aureus, 15.6 µg/mL (≈ 32.6 µM). Also, the values for the MIC (in the series with Aspergillus niger; in the series with Aspergillus fumigatus; in series [20]) were 7.81 µg/mL (≈ 16.3 µM), 15.6 µg/mL (≈ 32.6 µM) and 15.6 µg/mL (≈ 32.6 µM), respectively. In addition, the Activity was 48% in the series on Mus musculus [1]; 53% in the series on Mus musculus [2]; 45% in the series on Mus musculus [3]; 47% in the series with Rattus norvegicus [4]; 65% with Rattus norvegicus [5]; 35% in the series with Rattus norvegicus [6]. In addition, the Activity came to 57% in the series with Rattus norvegicus [7]; 40% in the series with Rattus norvegicus [8]; 40% in the series on Mus musculus [9]; 70% in the series on Mus musculus [10]; 53% with Mus musculus [11]; 63% in the series on Mus musculus [12]. Besides, the Activity in the series on Rattus norvegicus [14] stood at 46%; in the series on Rattus norvegicus [17], 46%; with Mus musculus [18], 39%; in the series with Rattus norvegicus [19], 39%. The UI was 32% in the series on Rattus norvegicus [13], 32% in the series with Rattus norvegicus [15] and 0.55 no unit with Rattus norvegicus [16].
As to `CC(=O)Oc1ccccc1C(=O)O` [ASPIRIN], the UI with Rattus norvegicus [21] worked out at 1.79%.
